From patent publication US20050096254A1, “Peptide deformylase activated prodrugs” (priority 2002, published 2005)
In brackets after ≈: the same amount, converted by molar mass.

Tests used:
Assay type in all cases: cell-based
[1] = system: E. aerogenes; assay: MIC susceptibility testing (modified NCCLS)
Protocol: (§1) The NCCLS (National Committee for Clinical Laboratory Standards), method to determine MIC's of antimicrobial compounds is modified for high-throughput screening. All stocks of tested compounds are prepared in either water or in DMSO depending on solubility. At the highest concentration, DMSO content should not exceed 0.5%. Briefly, twenty 2-fold serial dilutions of test compounds from the highest concentration is made in a 384-well microtiter plate. Each well is inoculated with testing bacteria in broth to a final concentration of approximately 1-1.5×10^6 cells/ml. Bacterial growth is determined by the increase of optical density at 600 nm using a microplate reader (Tecan SpectraFluor Plus).

[2] = system: E. cloacae; assay: MIC susceptibility testing (modified NCCLS)
Protocol: as §1

[3] = system: E. coli; assay: MIC susceptibility testing (modified NCCLS); details: Table 4, E. coli
Protocol: as §1

[4] = system: E. faecalis; assay: MIC susceptibility testing (modified NCCLS)
Protocol: as §1

[5] = system: H. influenzae; assay: MIC susceptibility testing (modified NCCLS)
Protocol: as §1

[6] = system: K. pneumoniae; assay: MIC susceptibility testing (modified NCCLS)
Protocol: as §1

[7] = system: M. catarrhalis; assay: MIC susceptibility testing (modified NCCLS)
Protocol: as §1

[8] = system: E. coli/Tem-1; assay: MIC susceptibility testing (modified NCCLS); details: Table 4, E. coli expressing TEM-1 beta-lactamase
Protocol: as §1, with “Plus). The MIC is defined as the lowest concentration at which bacterial growth (equivalent to visible growth) was inhibited after 16 to 18 hours of incubation at the appropriate temperature required for the bacteria growth.” for “Plus).”
E. coli/TEM—E. coli expressing TEM-1 beta-lactamase; MRSA—Methicillin Resistant S. Aureus; MSSA—Methicillin Sensitive S. Aureus.

[9] = system: P. aeruginosa; assay: MIC susceptibility testing (modified NCCLS)
Protocol: The NCCLS (National Committee for Clinical Laboratory Standards), method to determine MIC's of antimicrobial compounds is modified for high-throughput screening. All stocks of tested compounds are prepared in either water or in DMSO depending on solubility. At the highest concentration, DMSO content should not exceed 0.5%. Briefly, twenty 2-fold serial dilutions of test compounds from the highest concentration is made in a 384-well microtiter plate. […] Bacterial growth is determined by the increase of optical density at 600 nm using a microplate reader (Tecan SpectraFluor Plus).

[10] = system: Mammalian cells; assay: Toxicity to mammalian cells; details: after 16 hours of exposure
Protocol: Mammalian cells were treated with Compound #2 as described above.

## CSCC[C@H](NC=O)C(=O)N[C@@H](CC(C)C)C(=O)Oc1cc(Cl)ccc1Oc1ccc(Cl)cc1Cl [Compound #2]
[1]; Table 3, E. aerogenes ATCC 13048, Exp. #1
  MIC: 1 µg/mL (≈ 1.78 µM)
[1]; Table 3, E. aerogenes ATCC 13048, Exp. #2
  MIC: 1 µg/mL (≈ 1.78 µM)
[1]; Table 3, E. aerogenes ATCC 29009, Exp. #1
  MIC: 0.25 µg/mL (≈ 0.445 µM)
[1]; Table 3, E. aerogenes ATCC 29009, Exp. #2
  MIC: ≦0.125 μg/ml
[1]; Table 3, E. aerogenes ATCC 29751, Exp. #1
  MIC: 2 µg/mL (≈ 3.56 µM)
[1]; Table 3, E. aerogenes ATCC 29751, Exp. #2
  MIC: 1 µg/mL (≈ 1.78 µM)
[1]; Table 3, E. aerogenes ATCC 35028, Exp. #1
  MIC: 4 µg/mL (≈ 7.12 µM)
[1]; Table 3, E. aerogenes ATCC 35028, Exp. #2
  MIC: 2 µg/mL (≈ 3.56 µM)
[1]; Table 4, E. aerogenes ATCC 35028, Exp. #1
  MIC: 32 µg/mL (≈ 56.9 µM)
[1]; Table 4, E. aerogenes ATCC 35028, Exp. #2
  MIC: 16 µg/mL (≈ 28.5 µM)
[2]; Table 3, E. cloacae ATCC 23355, Exp. #1
  MIC: 0.5 µg/mL (≈ 0.89 µM)
[2]; Table 3, E. cloacae ATCC 23355, Exp. #2
  MIC: 0.5 µg/mL (≈ 0.89 µM)
[2]; Table 4, E. cloacae ATCC 23355, Exp. #1
  MIC: 16 µg/mL (≈ 28.5 µM)
[2]; Table 4, E. cloacae ATCC 23355, Exp. #2
  MIC: 1 µg/mL (≈ 1.78 µM)
[3]; Exp. #1
  MIC: 16 µg/mL (≈ 28.5 µM)
[3]; Exp. #2
  MIC: 16 µg/mL (≈ 28.5 µM)
[4]; Table 4, E. faecalis ATCC 49757, Exp. #1
  MIC: 64 µg/mL (≈ 114 µM)
[4]; Table 4, E. faecalis ATCC 49757, Exp. #2
  MIC: 32 µg/mL (≈ 56.9 µM)
[4]; Table 4, E. faecalis ATCC 700802, Exp. #1
  MIC: 32 µg/mL (≈ 56.9 µM)
[4]; Table 4, E. faecalis ATCC 700802, Exp. #2
  MIC: 32 µg/mL (≈ 56.9 µM)
[5]; Table 4, H. influenzae ATCC 33533, Exp. #1
  MIC: 64 µg/mL (≈ 114 µM)
[5]; Table 4, H. influenzae ATCC 33533, Exp. #2
  MIC: ≧64 μg/ml
[6]; Table 3, K. pneumoniae ATCC 51503, Exp. #1
  MIC: 8 µg/mL (≈ 14.2 µM)
[6]; Table 3, K. pneumoniae ATCC 51503, Exp. #2
  MIC: 8 µg/mL (≈ 14.2 µM)
[6]; Table 3, K. pneumoniae ATCC 51504, Exp. #1
  MIC: 1 µg/mL (≈ 1.78 µM)
[6]; Table 3, K. pneumoniae ATCC 51504, Exp. #2
  MIC: 2 µg/mL (≈ 3.56 µM)
[6]; Table 3, K. pneumoniae ATCC 700721, Exp. #1
  MIC: 2 µg/mL (≈ 3.56 µM)
[6]; Table 3, K. pneumoniae ATCC 700721, Exp. #2
  MIC: 2 µg/mL (≈ 3.56 µM)
[6]; Table 4, K. pneumoniae ATCC 51503, Exp. #1
  MIC: 4 µg/mL (≈ 7.12 µM)
[6]; Table 4, K. pneumoniae ATCC 51503, Exp. #2
  MIC: 8 µg/mL (≈ 14.2 µM)
[6]; Table 4, K. pneumoniae ATCC 700721, Exp. #1
  MIC: 4 µg/mL (≈ 7.12 µM)
[6]; Table 4, K. pneumoniae ATCC 700721, Exp. #2
  MIC: 8 µg/mL (≈ 14.2 µM)
[7]; Table 3, M. catarrhalis ATCC 43627, Exp. #1
  MIC: ≦0.125 μg/ml
[7]; Table 3, M. catarrhalis ATCC 43627, Exp. #2
  MIC: ≦0.125 μg/ml
[7]; Table 3, M. catarrhalis ATCC 43628, Exp. #1
  MIC: ≦0.125 μg/ml
[7]; Table 3, M. catarrhalis ATCC 43628, Exp. #2
  MIC: ≦0.125 μg/ml
[7]; Table 3, M. catarrhalis ATCC 49265, Exp. #1
  MIC: ≦0.125 μg/ml
[7]; Table 3, M. catarrhalis ATCC 49265, Exp. #2
  MIC: ≦0.125 μg/ml
[7]; Table 3, M. catarrhalis ATCC 51584, Exp. #1
  MIC: ≦0.125 μg/ml
[7]; Table 3, M. catarrhalis ATCC 51584, Exp. #2
  MIC: ≦0.125 μg/ml
[8]; Exp. #1
  MIC: 16 µg/mL (≈ 28.5 µM)
[8]; Exp. #2
  MIC: 16 µg/mL (≈ 28.5 µM)
[9]; Table 4, P. aeruginosa ATCC 21726, Exp. #1
  MIC: >64 µg/mL
[9]; Table 4, P. aeruginosa ATCC 21726, Exp. #2
  MIC: ≧64 μg/ml
[9]; Table 4, P. aeruginosa ATCC 29872, Exp. #1
  MIC: >64 µg/mL
[9]; Table 4, P. aeruginosa ATCC 29872, Exp. #2
  MIC: ≧64 μg/ml
[10]
  IC50: ~30 µM
